Test results from patent US20240058373A1, “FIBRE MIXTURE FOR YOUNG CHILDREN” (N.V. Nutricia, priority 2020, published 2024).

Test system: standard human gut microbiota pool
Assay: i-screen fermentation of fibres by faecal microbiota: pH and SCFA/BCFA formation
Format: cell-based
Conditions: after 24 h of fermentation in SIEM medium at 37° C., fibres 10 mg/ml
Description: For studying fermentation of fibres by microbiota the i-screen platform was used, see Schuren et al., The i-screen: A Versatile Preclinical Platform for Gut Microbiota Studies, J Prob Health 2019 7:212. A standard human gut microbiota pool was used for the fermentation. This pool was established via fecal donations from 6 healthy volunteers (Caucasian individuals, age 25-60 years, no antibiotic use in the 3 months preceding the donation, self-assessment of health status). Before starting the i-screen fermentation with the test compounds, the standardized fecal pool was incubated in SIEM (standard ileal effluent medium) under anaerobic conditions overnight (37° C.; 300 rpm) in order to activate the bacteria.
The fibres were tested at a concentration of 10 mg/ml. All compounds were tested in triplicate.
The following conditions were applied: • 1 No added fibres, SIEM medium only • 2 Mixture of beta-galactooligosaccharides (Vivinal GOS, Friesland Campina), inulin (Orafti HP (Beneo-Orafti Orey) Beneo BE), resistant starch (Novelose 330 (Ingredion UK Ltd) and non-soluble soy polysaccharides, source Fibrim 2000 (DuPont/Danisco) in a weight ratio of 38:38:4:20, prior art MF4 • 3 Mixture of beta-galactooligosaccharides (Vivinal GOS, Friesland Campina), inulin (Orafti HP (Beneo-Orafti Orey) Beneo BE), resistant starch (Novelose 330 (Ingredion UK Ltd) and soluble soy polysaccharides, source Soyafibe-S-Ca100 (Fuji Oil Co, Ltd), in a weight ratio of 38:38:4:20, new MF4 • 4 Lactulose (Duphalac Lactulose, Solvay, the Netherlands)
After 24 hours of fermentation in SIEM medium at 37° C., samples were collected for pH measurements, DNA isolation and for metabolite analysis. The remaining material was stored at −20° C.
DNA was isolated as described by Ladirat et al. J Microbiol Meth 2013, 92(3), 387-397 with some minor adjustments: the samples were initially mixed with 300 μl lysis buffer (Agowa, Berlin, Germany), 500 μl zirconium beads (0.1 mm), and 500 μl phenol, before being introduced to a Bead Beater (BioSpec Products, Bartlesville, OK, USA) for 3 min. 16S amplicon sequencing DNA was analyzed by using 16S rDNA amplicon sequencing. The V4 hypervariable region was targeted. […] Amplicon quality and size were analyzed on a Fragment Analyzer (Advanced Analytical Technologies, Inc.). […] SCFA covering acetate, propionate, and n-butyrate and branched chain fatty acids (BCFA) covering iso-butyrate and iso-valerate were analyzed as described by as described by Van Nuenen Microbiology in Health and Disease 2003, 15: 137-144. […]
For the analysis of total lactate, material resulting from the i-screen fermentation was sampled and centrifuged at 4,000 g for 5 minutes. […] The D- and L-lactate were determined by the Arena 20XL analyser. […]

Q: What does the source list for `OC[C@H]1O[C@@H](O[C@@H]2[C@@H](CO)OC(O)(CO)[C@H]2O)[C@H](O)[C@@H](O)[C@H]1O` (mixture of isomers) [lactulose, Lactulose]?
A: Mean Butyrate: 49.39 mM; Mean Propionate: 6.61 mM; Mean Acetate (value (s.d.)): 44.93 (1.40) mM; Mean Total SCFA (value (s.d.)): 100.9 (2.67) mM
